Data taken from patent US20180006232A1, “HETEROCYCLIC COMPOUND, LIGHT-EMITTING ELEMENT, LIGHT-EMITTING DEVICE, ELECTRONIC APPLIANCE, AND LIGHTING DEVICE” (Semiconductor Energy Laboratory Co., Ltd., priority 2014, published 2018).
Like-named read-outs stand apart in the source and are kept apart here.

Test: Examination of solubility in organic solvents
Format: physicochemical
Details: for solubility: organic solvent or mixture, thermodynamic from solid
Source text: The heterocyclic compound which is one embodiment of the present invention and used in this example was 2mFBPDBq (sample 1). Note that 2mFBPDBq was synthesized by the synthesis method described in Example 1. In addition, the compound used for comparison was 2mDBTBPDBq-II (comparison sample 2). The purity of each compound was 99.9%. The structural formulae of the compounds are shown below.
The solvents used in this example were the four kinds of solvents: toluene, chloroform, ethyl acetate, and acetone.
A method of examining the solubility of the compound of each sample is described. First, 10 mg of the compound was put into a small bottle and to this was added 1 mL of a solvent. Then, whether the compound was dissolved at room temperature or not was checked. When the compound was not dissolved at room temperature, ultrasonic wave irradiation and then heating using a dryer were performed, so that whether the compound was dissolved was checked.
When the compound was not dissolved after heating, the volume of the solvent was increased to 10 mL, so that whether the compound was dissolved at room temperature was checked. When the compound was not dissolved at room temperature, ultrasonic wave irradiation and then heating using a dryer were performed, so that whether the compound was dissolved was checked.

| SMILES | solubility [µg/mL] | Solubility in Acetone (acetone, 10 mg compound in 1 mL, then 10 mL, room temperature, then ultrasonic wave irradiation and heating) | Solubility in Chloroform (chloroform, 10 mg compound in 1 mL, then 10 mL, room temperature, then ultrasonic wave irradiation and heating) | Solubility in Ethyl acetate (ethyl acetate, 10 mg compound in 1 mL, then 10 mL, room temperature, then ultrasonic wave irradiation and heating) | solubility (toluene, 10 mg compound in 1 mL, then 10 mL, room temperature, then ultrasonic wave irradiation and heating, read-out: Solubility in Toluene) [µg/mL] | Solubility compared with comparison compound 2mDBTBPDBq-II (organic solvents (toluene, chloroform, ethyl acetate, acetone), summary in words) |
| --- | --- | --- | --- | --- | --- | --- |
| c1cc(-c2cccc(-c3cccc4c3sc3ccccc34)c2)cc(-c2cnc3c4ccccc4c4ccccc4c3n2)c1 [2mDBTBPDBq-II, 2-[3′-(dibenzothiophen-4-yl)biphenyl-3-yl]dibenzo[f,h]quinoxaline, reference compound] | < 1000 | – | – | – | – | – |
| CC1(C)c2ccccc2-c2ccc(-c3cccc(-c4cccc(-c5cnc6c7ccccc7c7ccccc7c6n5)c4)c3)cc21 [2mFBPDBq, 2-{3-[3-(9,9-dimethylfluoren-2-yl)phenyl]phenyl}dibenzo[f,h]quinoxaline] | – | □ (dissolved at 10 mg/10 mL when heated) | ◯ (dissolved at 10 mg/mL when heated) | □ (dissolved at 10 mg/10 mL when heated) | > 10000 | higher solubility |
